Assay results as given in ChEMBL document CHEMBL1201862, “PubChem BioAssay data set” (2004).
Calls of active or inactive are those of the source.

Legend:
Type in all cases: functional
[1] = molecular target: T1, Serine/threonine-protein kinase TBK1 (Homo sapiens, UniProt Q9UHD2); experiment: Navigating the Kinome. Panel member name: TBK1
T1 sequence (Q9UHD2 whole entry): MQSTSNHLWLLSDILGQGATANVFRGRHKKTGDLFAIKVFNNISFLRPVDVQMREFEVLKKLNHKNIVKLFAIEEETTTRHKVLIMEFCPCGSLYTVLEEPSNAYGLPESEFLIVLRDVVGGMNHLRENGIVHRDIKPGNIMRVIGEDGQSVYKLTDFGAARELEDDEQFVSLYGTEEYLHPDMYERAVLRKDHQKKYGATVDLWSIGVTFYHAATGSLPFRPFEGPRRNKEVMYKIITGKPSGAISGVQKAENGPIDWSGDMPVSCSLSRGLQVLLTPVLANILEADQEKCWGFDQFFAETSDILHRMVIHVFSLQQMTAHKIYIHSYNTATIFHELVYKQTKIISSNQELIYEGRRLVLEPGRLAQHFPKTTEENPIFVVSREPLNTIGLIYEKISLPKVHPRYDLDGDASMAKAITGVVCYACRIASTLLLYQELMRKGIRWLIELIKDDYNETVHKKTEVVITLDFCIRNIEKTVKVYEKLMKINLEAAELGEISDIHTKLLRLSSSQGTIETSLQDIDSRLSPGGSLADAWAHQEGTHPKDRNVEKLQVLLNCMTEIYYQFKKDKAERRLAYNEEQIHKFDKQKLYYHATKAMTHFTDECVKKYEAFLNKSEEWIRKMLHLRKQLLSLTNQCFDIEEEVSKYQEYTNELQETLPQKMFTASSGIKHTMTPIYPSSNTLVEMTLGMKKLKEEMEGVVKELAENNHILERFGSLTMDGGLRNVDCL

[2] = molecular target: 5'-AMP-activated protein kinase catalytic subunit alpha-1 (Homo sapiens, UniProt Q13131)
Chain of 5'-AMP-activated protein kinase catalytic subunit alpha-1 (Q13131 whole entry): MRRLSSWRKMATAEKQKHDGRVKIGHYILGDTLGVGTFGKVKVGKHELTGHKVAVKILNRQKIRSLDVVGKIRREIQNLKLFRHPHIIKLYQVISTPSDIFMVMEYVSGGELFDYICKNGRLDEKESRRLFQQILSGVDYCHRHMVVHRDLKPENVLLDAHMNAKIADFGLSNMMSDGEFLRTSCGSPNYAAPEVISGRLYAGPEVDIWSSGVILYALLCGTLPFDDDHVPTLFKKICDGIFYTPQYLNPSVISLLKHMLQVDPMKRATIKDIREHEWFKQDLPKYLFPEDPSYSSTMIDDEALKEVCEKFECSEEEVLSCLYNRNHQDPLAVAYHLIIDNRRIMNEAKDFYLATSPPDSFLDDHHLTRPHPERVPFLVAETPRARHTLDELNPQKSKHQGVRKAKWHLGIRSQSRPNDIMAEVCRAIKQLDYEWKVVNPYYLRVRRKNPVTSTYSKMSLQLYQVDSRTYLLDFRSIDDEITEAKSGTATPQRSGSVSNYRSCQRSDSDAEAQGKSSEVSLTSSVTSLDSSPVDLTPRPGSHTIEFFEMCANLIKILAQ

[3] = molecular target: Mitogen-activated protein kinase 8 (Homo sapiens, UniProt P45983);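 also: value comes from one member of a kinome-wide kinase profiling panel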
Chain of Mitogen-activated protein kinase 8 (P45983 whole entry): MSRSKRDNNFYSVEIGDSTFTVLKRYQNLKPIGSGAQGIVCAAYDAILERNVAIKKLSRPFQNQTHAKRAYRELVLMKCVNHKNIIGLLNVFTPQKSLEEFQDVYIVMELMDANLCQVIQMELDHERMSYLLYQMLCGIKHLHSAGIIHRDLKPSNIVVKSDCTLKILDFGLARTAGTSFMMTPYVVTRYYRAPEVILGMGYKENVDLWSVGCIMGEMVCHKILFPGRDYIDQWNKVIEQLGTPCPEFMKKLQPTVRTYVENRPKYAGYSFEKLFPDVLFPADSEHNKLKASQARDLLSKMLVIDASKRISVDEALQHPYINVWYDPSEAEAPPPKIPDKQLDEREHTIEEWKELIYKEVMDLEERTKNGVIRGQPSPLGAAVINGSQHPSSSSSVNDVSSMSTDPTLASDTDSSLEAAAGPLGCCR

[4] = molecular target: Fibroblast growth factor receptor 1 (Homo sapiens, UniProt P11362)
Chain of Fibroblast growth factor receptor 1 (P11362 whole entry): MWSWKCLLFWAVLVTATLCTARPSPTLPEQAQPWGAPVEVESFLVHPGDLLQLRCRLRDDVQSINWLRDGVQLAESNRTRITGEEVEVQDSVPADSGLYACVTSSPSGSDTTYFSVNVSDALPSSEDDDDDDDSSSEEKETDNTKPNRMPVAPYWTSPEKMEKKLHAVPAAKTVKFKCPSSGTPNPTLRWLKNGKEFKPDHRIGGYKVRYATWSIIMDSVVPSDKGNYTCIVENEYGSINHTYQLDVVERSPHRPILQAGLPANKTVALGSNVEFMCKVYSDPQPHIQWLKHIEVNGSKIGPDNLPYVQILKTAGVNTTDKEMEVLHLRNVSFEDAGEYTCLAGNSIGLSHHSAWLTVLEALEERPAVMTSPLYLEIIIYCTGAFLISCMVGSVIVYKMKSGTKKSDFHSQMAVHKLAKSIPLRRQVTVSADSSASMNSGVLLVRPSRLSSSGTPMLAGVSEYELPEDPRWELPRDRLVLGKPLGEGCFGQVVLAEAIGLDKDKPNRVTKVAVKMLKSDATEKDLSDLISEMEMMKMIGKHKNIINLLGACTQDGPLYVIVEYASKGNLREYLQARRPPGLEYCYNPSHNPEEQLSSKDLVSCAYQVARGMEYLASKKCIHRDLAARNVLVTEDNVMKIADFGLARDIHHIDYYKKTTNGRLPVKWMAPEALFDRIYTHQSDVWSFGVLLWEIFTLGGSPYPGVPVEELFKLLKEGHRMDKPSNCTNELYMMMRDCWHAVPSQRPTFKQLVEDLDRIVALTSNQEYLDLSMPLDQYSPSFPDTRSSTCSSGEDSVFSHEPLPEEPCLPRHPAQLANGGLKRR

[5] = molecular target: Mitogen-activated protein kinase 9 (Homo sapiens, UniProt P45984);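 also: value from a kinome panel profiling assay, MAPK9 panel entry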
[6] = molecular target: High affinity nerve growth factor receptor (Homo sapiens, UniProt P04629);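 also: NTRK1 tested as one member of a kinome-wide profiling panel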
Chain of High affinity nerve growth factor receptor (P04629 whole entry): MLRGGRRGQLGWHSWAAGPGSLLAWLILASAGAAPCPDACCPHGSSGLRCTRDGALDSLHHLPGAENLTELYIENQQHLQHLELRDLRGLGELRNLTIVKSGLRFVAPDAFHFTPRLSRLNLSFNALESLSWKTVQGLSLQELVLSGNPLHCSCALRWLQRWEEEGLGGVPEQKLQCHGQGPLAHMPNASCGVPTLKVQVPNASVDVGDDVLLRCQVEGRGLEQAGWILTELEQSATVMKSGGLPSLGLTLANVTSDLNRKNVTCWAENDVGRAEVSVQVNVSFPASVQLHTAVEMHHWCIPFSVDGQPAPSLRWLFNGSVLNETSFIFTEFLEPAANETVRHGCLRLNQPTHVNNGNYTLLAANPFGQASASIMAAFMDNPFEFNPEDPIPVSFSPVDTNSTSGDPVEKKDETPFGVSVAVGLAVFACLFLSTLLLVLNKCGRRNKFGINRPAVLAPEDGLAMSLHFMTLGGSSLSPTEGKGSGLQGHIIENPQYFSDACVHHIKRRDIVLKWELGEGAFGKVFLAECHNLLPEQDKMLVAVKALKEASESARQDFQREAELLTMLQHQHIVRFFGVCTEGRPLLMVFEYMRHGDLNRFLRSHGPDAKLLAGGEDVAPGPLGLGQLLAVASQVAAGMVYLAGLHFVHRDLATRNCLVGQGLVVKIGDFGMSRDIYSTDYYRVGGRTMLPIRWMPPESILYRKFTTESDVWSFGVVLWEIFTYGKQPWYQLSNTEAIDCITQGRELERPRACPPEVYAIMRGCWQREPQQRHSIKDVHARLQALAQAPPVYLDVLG

[7] = molecular target: Hepatocyte growth factor receptor (Homo sapiens, UniProt P08581);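 also: kinase panel profiling across the kinome, with MET as the panel member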
[8] = molecular target: T2, Receptor-type tyrosine-protein kinase FLT3 (Homo sapiens, UniProt P36888);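 also: FLT3 was tested as one member of a kinome-wide kinase panel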
T2 sequence (P36888 whole entry): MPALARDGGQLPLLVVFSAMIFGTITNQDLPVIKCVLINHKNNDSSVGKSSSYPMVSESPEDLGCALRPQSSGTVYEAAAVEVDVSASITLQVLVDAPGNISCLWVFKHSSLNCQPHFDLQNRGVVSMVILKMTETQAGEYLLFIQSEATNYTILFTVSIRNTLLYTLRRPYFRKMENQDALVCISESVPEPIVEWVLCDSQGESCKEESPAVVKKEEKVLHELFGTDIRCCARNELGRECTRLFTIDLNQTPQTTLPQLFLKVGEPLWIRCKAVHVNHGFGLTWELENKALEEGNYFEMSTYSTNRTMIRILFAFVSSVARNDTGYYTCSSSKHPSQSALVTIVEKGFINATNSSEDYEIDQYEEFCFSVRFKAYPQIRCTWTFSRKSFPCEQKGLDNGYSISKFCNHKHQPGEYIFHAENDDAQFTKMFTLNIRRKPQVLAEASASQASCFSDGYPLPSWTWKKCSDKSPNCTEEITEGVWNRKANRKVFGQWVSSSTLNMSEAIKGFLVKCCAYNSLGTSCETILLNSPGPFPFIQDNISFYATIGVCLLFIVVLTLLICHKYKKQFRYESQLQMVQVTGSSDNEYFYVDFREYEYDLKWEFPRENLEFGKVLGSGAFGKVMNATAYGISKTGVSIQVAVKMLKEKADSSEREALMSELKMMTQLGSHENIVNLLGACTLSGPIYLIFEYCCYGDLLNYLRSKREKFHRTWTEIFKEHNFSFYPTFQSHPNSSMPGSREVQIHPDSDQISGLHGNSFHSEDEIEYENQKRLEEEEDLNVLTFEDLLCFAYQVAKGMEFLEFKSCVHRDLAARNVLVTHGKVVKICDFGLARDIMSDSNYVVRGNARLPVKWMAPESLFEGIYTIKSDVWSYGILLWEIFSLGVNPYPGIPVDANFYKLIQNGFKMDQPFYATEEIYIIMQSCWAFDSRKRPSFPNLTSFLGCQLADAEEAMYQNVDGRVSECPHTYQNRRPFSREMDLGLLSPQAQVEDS

[9] = molecular target: G protein-coupled receptor kinase 5 (Homo sapiens, UniProt P34947); experiment: Navigating the Kinome. Panel member name: GPRK5
Chain of G protein-coupled receptor kinase 5 (P34947 whole entry): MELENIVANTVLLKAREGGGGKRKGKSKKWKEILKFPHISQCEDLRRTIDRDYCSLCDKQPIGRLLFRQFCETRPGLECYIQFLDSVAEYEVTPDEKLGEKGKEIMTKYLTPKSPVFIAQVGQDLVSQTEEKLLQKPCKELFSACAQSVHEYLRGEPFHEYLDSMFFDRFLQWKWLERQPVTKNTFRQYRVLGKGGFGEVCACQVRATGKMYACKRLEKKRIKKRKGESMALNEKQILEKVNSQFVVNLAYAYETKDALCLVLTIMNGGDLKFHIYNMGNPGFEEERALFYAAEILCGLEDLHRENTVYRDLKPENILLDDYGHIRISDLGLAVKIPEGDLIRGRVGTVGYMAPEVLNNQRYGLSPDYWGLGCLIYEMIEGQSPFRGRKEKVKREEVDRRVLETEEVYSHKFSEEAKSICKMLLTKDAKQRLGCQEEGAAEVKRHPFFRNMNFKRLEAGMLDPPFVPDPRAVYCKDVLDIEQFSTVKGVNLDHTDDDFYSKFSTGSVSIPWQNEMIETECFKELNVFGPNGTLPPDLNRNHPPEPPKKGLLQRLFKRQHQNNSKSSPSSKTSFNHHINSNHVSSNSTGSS

[10] = molecular target: Insulin-like growth factor 1 receptor (Homo sapiens, UniProt P08069); experiment: Navigating the Kinome. Panel member name: IGF1R
[11] = molecular target: Rho-associated protein kinase 1 (Homo sapiens, UniProt Q13464);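 also: measured within a broad kinome-wide panel profiling many kinases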
[12] = molecular target: Tyrosine-protein kinase Fyn (Homo sapiens, UniProt P06241)
[13] = molecular target: Cyclin-dependent kinase 8 (Homo sapiens, UniProt P49336); experiment: Navigating the Kinome. Panel member name: CDK8
Chain of Cyclin-dependent kinase 8 (P49336 whole entry): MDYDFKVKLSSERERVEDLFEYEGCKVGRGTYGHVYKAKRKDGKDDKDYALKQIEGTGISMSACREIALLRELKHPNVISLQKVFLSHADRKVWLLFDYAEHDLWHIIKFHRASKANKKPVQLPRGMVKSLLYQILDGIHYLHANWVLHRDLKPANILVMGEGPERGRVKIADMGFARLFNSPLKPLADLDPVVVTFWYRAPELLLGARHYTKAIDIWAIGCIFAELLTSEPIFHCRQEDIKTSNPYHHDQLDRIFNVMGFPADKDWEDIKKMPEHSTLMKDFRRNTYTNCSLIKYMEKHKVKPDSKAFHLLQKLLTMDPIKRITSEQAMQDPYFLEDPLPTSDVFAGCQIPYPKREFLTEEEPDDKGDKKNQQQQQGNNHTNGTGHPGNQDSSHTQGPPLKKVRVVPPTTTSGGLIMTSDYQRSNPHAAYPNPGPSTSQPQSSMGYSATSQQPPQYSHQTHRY

[14] = molecular target: Cyclin-dependent kinase 7 (Homo sapiens, UniProt P50613);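 also: value comes from a kinome-wide kinase profiling panel in which CDK7 is one member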
Chain of Cyclin-dependent kinase 7 (P50613 whole entry): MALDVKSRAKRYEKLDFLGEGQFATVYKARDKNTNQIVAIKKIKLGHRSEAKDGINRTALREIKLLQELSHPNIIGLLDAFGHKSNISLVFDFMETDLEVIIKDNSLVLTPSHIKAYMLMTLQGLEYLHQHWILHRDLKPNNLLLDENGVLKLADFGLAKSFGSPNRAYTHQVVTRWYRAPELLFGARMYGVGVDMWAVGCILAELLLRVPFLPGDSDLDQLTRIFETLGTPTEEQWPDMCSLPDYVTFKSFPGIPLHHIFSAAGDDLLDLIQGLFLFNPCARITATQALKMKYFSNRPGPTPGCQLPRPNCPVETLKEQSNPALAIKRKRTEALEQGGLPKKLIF

[15] = molecular target: Vascular endothelial growth factor receptor 1 (Homo sapiens, UniProt P17948);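 also: measured within a kinome-wide profiling panel, FLT1 as the panel member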
[16] = molecular target: cAMP-dependent protein kinase catalytic subunit alpha (Homo sapiens, UniProt P17612)
[17] = molecular target: Macrophage-stimulating protein receptor (Homo sapiens, UniProt Q04912); experiment: Navigating the Kinome. Panel member name: MST1R
[18] = molecular target: Dual specificity mitogen-activated protein kinase kinase 2 (Homo sapiens, UniProt P36507); experiment: Navigating the Kinome. Panel member name: MAP2K2
Chain of Dual specificity mitogen-activated protein kinase kinase 2 (P36507 whole entry): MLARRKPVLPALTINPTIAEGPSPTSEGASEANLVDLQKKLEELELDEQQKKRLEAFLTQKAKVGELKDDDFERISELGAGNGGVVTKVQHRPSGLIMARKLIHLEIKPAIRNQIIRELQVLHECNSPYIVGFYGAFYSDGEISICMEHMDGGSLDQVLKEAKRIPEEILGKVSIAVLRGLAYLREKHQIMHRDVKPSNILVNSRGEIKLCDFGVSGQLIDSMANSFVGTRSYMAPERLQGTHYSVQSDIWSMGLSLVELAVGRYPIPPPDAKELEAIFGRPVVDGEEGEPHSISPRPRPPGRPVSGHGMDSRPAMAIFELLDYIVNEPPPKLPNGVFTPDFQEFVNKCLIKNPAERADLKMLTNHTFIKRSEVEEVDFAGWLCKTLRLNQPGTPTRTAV

[19] = molecular target: Calcium/calmodulin-dependent protein kinase type II subunit alpha (Homo sapiens, UniProt Q9UQM7); experiment: Navigating the Kinome. Panel member name: CAMK2A
Chain of Calcium/calmodulin-dependent protein kinase type II subunit alpha (Q9UQM7 whole entry): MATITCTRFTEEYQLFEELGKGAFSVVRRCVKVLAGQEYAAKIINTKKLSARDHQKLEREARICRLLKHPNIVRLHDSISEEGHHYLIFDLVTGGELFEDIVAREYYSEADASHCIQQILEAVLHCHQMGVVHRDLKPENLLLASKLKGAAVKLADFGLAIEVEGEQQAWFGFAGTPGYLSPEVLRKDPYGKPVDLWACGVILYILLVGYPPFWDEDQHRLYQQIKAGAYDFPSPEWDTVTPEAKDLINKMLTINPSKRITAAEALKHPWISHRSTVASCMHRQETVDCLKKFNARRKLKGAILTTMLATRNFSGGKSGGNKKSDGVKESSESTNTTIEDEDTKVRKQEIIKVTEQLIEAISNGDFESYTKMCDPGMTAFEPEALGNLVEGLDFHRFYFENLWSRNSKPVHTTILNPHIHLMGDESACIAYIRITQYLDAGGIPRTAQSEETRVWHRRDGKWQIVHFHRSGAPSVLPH

[20] = molecular target: Mitogen-activated protein kinase 14 (Homo sapiens, UniProt Q16539);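 also: part of a kinome-wide panel, MAPK14 entry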

Row | SMILES | Ki [1] | Ki [2] | Ki [3] | Ki [4] | Ki [5] | Ki [6] | Ki [7] | Ki [8] | Ki [9] | Ki [10] | Ki [11] | Ki [12] | Ki [13] | Ki [14] | Ki [15] | Ki [16] | Ki [17] | Ki [18] | Ki [19] | Ki [20] | further results
1 | OC1CCC(Nc2nc(Cl)cc(-c3c[nH]c4ncccc34)n2)CC1 (stereo unspecified) | 1 µM (active) | 0.126 µM (active) | 0.251 µM (active) | 2 µM (active) | 0.251 µM (active) | 0.398 µM (active) | > 3.16 µM (inactive) | 0.0126 µM (active) | 1.58 µM (active) | > 2 µM (inactive) | 0.00794 µM (active) | > 0.794 µM (inactive) | 0.000794 µM (active) | 0.251 µM (active) | 0.158 µM (active) | 0.0316 µM (active) | 0.1 µM (active) | 0.0501 µM (active) | 0.158 µM (active) | > 3.98 µM (inactive) | pKi [1]: 6; pKi [2]: 6.9; pKi [3]: 6.6; pKi [4]: 5.7; pKi [5]: 6.6; pKi [6]: 6.4; pKi [8]: 7.9; pKi [9]: 5.8; pKi [11]: 8.1; pKi [13]: 9.1; pKi [14]: 6.6; pKi [15]: 6.8; pKi [16]: 7.5; pKi [17]: 7; pKi [18]: 7.3; pKi [19]: 6.8
2 | COc1cccc(CNC(=O)c2cnc(-c3ccncc3)nc2)c1 | > 3.16 µM (inactive) | > 3.16 µM (inactive) | > 5.01 µM (inactive) | > 3.98 µM (inactive) | > 3.98 µM (inactive) | > 3.16 µM (inactive) | > 2.51 µM (inactive) | > 3.16 µM (inactive) | 3.98 µM (active) | > 2.51 µM (inactive) | 0.0251 µM (active) | > 6.31 µM (inactive) | > 3.98 µM (inactive) | > 3.98 µM (inactive) | > 3.98 µM (inactive) | 0.316 µM (active) | > 3.98 µM (inactive) | > 3.98 µM (inactive) | > 7.94 µM (inactive) | > 3.98 µM (inactive) | 
